Measured values reported in patent US8993632B2, “Inhibitors of the 11-beta-hydroxysteroid dehydrogenase type 1 enzyme” (AbbVie Inc., priority 2005, dated 2015).

What was measured:
CD-1 mice = experiment: 24-hour inhibitory avoidance task in mice after drug-in-diet dosing; type: in vivo; settings: both doses (10 and 100 mg/kg/day in Western diet), vs vehicle control mice
Experimental: The 24-hour inhibitory avoidance task in mice is a measure of one-trial learning and memory consolidation in response to a discrete aversive event (foot-shock). Mice are first placed in an illuminated compartment of a two-compartment apparatus. Mice will naturally step through into an adjoining dark compartment, which they prefer. When the mice enter the dark they receive a mild foot-shock. To assess memory, mice are tested 24 hours later and the length of time the animal refrains from entering the dark compartment is recorded (higher latencies indicate improved memory for the aversive event).
Male CD-1 mice were obtained from Charles River, Wilmington, Mass. Mice were group-housed 10 per cage. The body weight upon arrival was 20-25 g. Food and water were available ad libitum except during experiments. […]
On the first day of testing (17 days after drug-in-diet was presented) mice were removed from the colony room in their home cage, brought to the testing room, and left undisturbed for 2 hours prior to testing initiation. […] The latency to enter the dark chamber was recorded and was the dependent variable measured for assessing memory retention (latency is defined as entry of the whole mouse; all 4 paws on the grids in the dark side, plus the tail in the chamber for 5 sec; 180 sec is maximum latency). Data were analyzed using Mann Whitney U comparisons. […]

phosphorylated CREB = experiment: Phosphorylated CREB immunohistochemistry in brain after food-in-diet dosing; type: in vivo, mice; settings: 18 days food-in-diet (10 and 100 mg/kg/day)
Experimental: In vivo signaling studies were conducted to examine the biochemical pathways that may be mechanistically involved in the cognitive efficacy associated with Compound KK. An important signaling process that serves as a biochemical correlate of synaptic plasticity underlying learning and memory is the phosphorylation of CREB (c-AMP-response element binding protein), a transcription factor critical to long-term memory. To investigate the effects of Compound KK on CREB phosphorylation, CD1 mice treated and tested (data presented in FIG. 1) were given a 24-hour rest after testing before immunohistochemical procedures commenced.
Male CD-1 mice were obtained from Charles River, Wilmington, Mass. Mice were group-housed 10 per cage. The body weight upon arrival was 20-25 g. […]
Compound KK was administered via a drug-in-diet administration (100 mg/kg/day in Western diet) or (10 mg/kg/day in Western diet). […] Immuno-reactivity (IR) was quantified using an image analysis system (Leica, Quantimet 500) that determined number and/or area of peroxidase substrate-positive stained neurons from digitized photomicrographs according to a pixel gray level empirically determined prior to analysis. Overall statistical significance was determined using a one-way ANOVA, with Dunnett's post hoc analyses used to determine significance (p<0.05 was considered significant).

HSD-1 = experiment: Monkey ex vivo HSD1 activity (cortisone to cortisol in harvested tissue); set-up: species or system Cynomolgus Monkeys; settings: for HSD-1 ex vivo activity, Mean % Veh Control: single 10 mg/kg oral dose
Experimental: Harvested tissues (approximately 150 mg) were minced into small, 2 mm pieces in the presence of 5× volume of incubation buffer. Cortisone at final concentrations of 0, 3, 10 or 30 μM was added to each well. Cell culture plates with tissues were incubated at 37° C. for three hours. Two-hundred μL of tissue culture supernatant was then removed and spun at 1000 rpm in an Eppindorf tube, and then 100 μL of resulting supernatant was aliquotted into two tubes for LCMS analysis of cortisol.

Sprague Dawley rats = experiment: Short-term social recognition memory in the rat; type: in vivo; settings: 30 mg/kg po at 24, 18 and 1 hour before first juvenile exposure, vs vehicle control rats
Experimental: Social memory and social cognition are impaired in disorders such as Alzheimer's disease and schizophrenia. One of the more commonly used preclinical models of social recognition memory is short-term social recognition in the rat, a model of short-term memory based on the recognition of a juvenile rat by an adult rat. […] The juvenile rat is then removed and reintroduced 120 min later, and interactive behavior of the adult rat is again monitored. If memory has been lost over the interval between trials 1 and 2, the extent of interaction is equal (expressed as a ratio of investigation time of T1/T2) and the ratio will be close to 1. However, if the adult remembers the juvenile, the investigation ratio declines. To test for non-specific effects, a novel juvenile is introduced at 120 minutes instead of the familiar juvenile. […]
Rats were pre-dosed po at 24, 18 and 1 hour before first juvenile rat exposure with vehicle, or Compound MM (30 mg/kg). […] The time the adult spent exploring (sniffing, grooming, close following) the juvenile during this test session was recorded, and defined as the first investigation duration. […] Data were analyzed using a one-way analysis of variance. If there was a significant effect, subsequent post hoc significance was determined using Dunnett's multiple comparison testing (p<0.05 was regarded as significant).

Fisher rats = experiment: Rat EEG REM sleep parameters; type: in vivo; settings: 30 mg/kg, 3 times at 24, 26, and 0.1 hours before measurement; 8 h EEG
Experimental: EEG of Fisher rats (n=8/group) with chronically implanted supracortical EEG-electrodes were analyzed for an 8 h period. Intraindividual drug-induced changes of power spectra were analyzed. For REM sleep the number of REM episodes, latency to first REM, and total REM time was analyzed.

ACh release = experiment: Microdialysis, cortical/hippocampal acetylcholine levels; type: in vivo, Sprague Dawley rats; settings: single administration 30 mg/kg, p.o.
Experimental: (§1) Microdialysis studies (resting or challenging conditions) in freely moving, male Sprague Dawley rats (Janvier, 295-315 g, n=5-8/treatment group) were performed using stereotactically instrumented microdialysis probes (CMA/12-14-2): mPFC, hippocampus. Aliquots of the same microdialysate fractions (6 before, and 9-12 after compound administration) were analyzed either for acetylcholine or for serotonin by HPLC and electrochemical detection.

serotonin (5-HT) levels = experiment: Microdialysis, cortical/hippocampal serotonin levels; type: in vivo, Sprague Dawley rats; settings: single administration 30 mg/kg, p.o.
Experimental: as §1
This is a feature shared by marketed anti-depressive drugs and might indicate the potential use for 11β-HSD1 inhibitors as antidepressants/anxiolytic drugs. These findings remain to be confirmed by (i) investigating 11β-HSD1 inhibitors from different chemotype(s) in selected microdialysis studies and/or (ii) in animal models of depression/anxiety.

SMILES | memory retention (Mean Transfer Latency), FIG. 1 (CD-1 mice) | phosphorylated CREB, FIG. 2 (phosphorylated CREB) | ex vivo inhibition of HSD1 in monkey brain, fat and liver (HSD-1; 2.5 and 16 hours following a single oral 10 mg/kg dose) | HSD-1 ex vivo activity, Mean % Veh Control (HSD-1; Cerebral Cortex, 16 hours) [%] | HSD-1 ex vivo activity, Mean % Veh Control (HSD-1; Hippocampus, 16 hours) [%] | HSD-1 ex vivo activity, Mean % Veh Control (HSD-1; Liver, 2.5 hours) [%] | HSD-1 ex vivo activity, Mean % Veh Control (HSD-1; Liver, 16 hours) [%] | HSD-1 ex vivo activity, Mean % Veh Control (HSD-1; Mesenteric Fat, 2.5 hours) [%] | HSD-1 ex vivo activity, Mean % Veh Control (HSD-1; Mesenteric Fat, 16 hours) [%] | short-term memory retention, FIG. 4 (Sprague Dawley rats) | increase of latency to first REM (Fisher rats) [%] | reduction of REM time (Fisher rats) [%] | reduction of number of REM sleep episodes (Fisher rats) [%] | reduction of total sleep time (Fisher rats) [%] | ACh release under resting conditions (ACh release; acute) | ACh release under challenging conditions (novel cage), cortex and hippocampus (ACh release) | serotonin (5-HT) levels in the medial prefrontal cortex and in the hippocampus (serotonin (5-HT) levels)
CC(C)(Oc1ccc(F)cc1Cl)C(=O)NC1C2CC3CC1CC(S(C)(=O)=O)(C3)C2 (centres unmarked) [Compound KK, 2-(2-Chloro-4-fluorophenoxy)-2-methyl-N-[(E)-5-(methylsulfonyl)-2-adamantyl]propanamide] | significant improvement in memory retention | increase in phosphorylated CREB | potent ex vivo inhibition | 30 | 42 | 38 | 9 | 90 | 50 |  |  |  |  |  |  |  | 
O=C(CN1CCN(c2ccc(C(F)(F)F)cn2)CC1)NC1C2CC3CC1CC(O)(C3)C2 (centres unmarked) [Compound MM, N-[(E)-5-Hydroxy-2-adamantyl]-2-{-4-[5-(trifluoromethyl)pyridin-2-yl]piperazin-1-yl}acetamide] |  |  |  |  |  |  |  |  |  | significant improvement in short-term memory retention | 62 | 23 | 16 | 10 | did not change ACh release | did not induce any further stimulation of ACh release | long-lasting increase
